# Source: PMC3081901 (Bioorganic & medicinal chemistry letters, 2010)
# Target: T1, human A1 AR (Homo sapiens, UniProt P30542)
# T1 sequence (P30542 1-326): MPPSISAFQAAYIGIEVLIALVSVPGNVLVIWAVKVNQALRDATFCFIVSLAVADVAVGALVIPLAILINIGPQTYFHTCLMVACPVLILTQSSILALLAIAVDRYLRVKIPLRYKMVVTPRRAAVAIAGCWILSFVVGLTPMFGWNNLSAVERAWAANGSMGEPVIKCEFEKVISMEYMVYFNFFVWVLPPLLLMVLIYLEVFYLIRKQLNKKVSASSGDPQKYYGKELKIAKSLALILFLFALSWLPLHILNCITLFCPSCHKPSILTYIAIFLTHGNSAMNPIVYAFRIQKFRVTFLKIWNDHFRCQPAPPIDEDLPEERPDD
# Assay: Competition radioligand binding, human A1 AR
smiles,measurement,value
Nc1nc2c(cnn2CCCc2ccc(OCC(=O)NCCNCCNC(=O)CCCCCNC(=O)COc3ccc(/C=C/C4=[N+]5C(=Cc6ccc(-c7ccc[nH]7)n6[B-]5(F)F)C=C4)cc3)cc2)c2nc(-c3ccco3)nn12 [Compound 14],Ki,4.18 ± 0.92 µM
